Assay results published in ChEMBL document CHEMBL1201862, “PubChem BioAssay data set” (2004).
Calls of active or inactive are those of the source.

Experiments:
Cytochrome P450 2D6 = Cytochrome P450 2D6 (Homo sapiens, UniProt P10635);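 also: CYP2D6 member of a cytochrome P450 panel assay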
[1] = biological target: Peroxisome proliferator-activated receptor gamma/Nuclear receptor coactivator 3 (Homo sapiens, UniProt P37231); type: functional;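 also: agonist potency for raising coactivator recruitment to the receptor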
[2] = biological target: Peroxisome proliferator-activated receptor gamma/Nuclear receptor coactivator 1 (Homo sapiens, UniProt P37231); type: functional;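 also: agonist potency as compounds enhance coactivator SRC-1 recruitment to PPARgamma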
[3] = biological target: Peroxisome proliferator-activated receptor gamma/Nuclear receptor coactivator 2 (Homo sapiens, UniProt P37231); type: functional;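 also: agonist potency for raising coactivator recruitment to the receptor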
Cytochrome P450 2C9 = Cytochrome P450 2C9 (Homo sapiens, UniProt P11712)
Cytochrome P450 3A4 = Cytochrome P450 3A4 (Homo sapiens, UniProt P08684);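 also: CYP3A4 tested as one member of a cytochrome P450 panel screen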
Hexokinase-1 = biological target: T1, Hexokinase-1 (Homo sapiens, UniProt P19367); experiment: hexokinase 1 activity inhibitors, potency – biochemical, set 2, resazurin fluorescence coupled readout, selectivity assay for HKDC1 inhibitor project, SAR follow-up (AID 588356); type: functional
T1 sequence (P19367 whole entry): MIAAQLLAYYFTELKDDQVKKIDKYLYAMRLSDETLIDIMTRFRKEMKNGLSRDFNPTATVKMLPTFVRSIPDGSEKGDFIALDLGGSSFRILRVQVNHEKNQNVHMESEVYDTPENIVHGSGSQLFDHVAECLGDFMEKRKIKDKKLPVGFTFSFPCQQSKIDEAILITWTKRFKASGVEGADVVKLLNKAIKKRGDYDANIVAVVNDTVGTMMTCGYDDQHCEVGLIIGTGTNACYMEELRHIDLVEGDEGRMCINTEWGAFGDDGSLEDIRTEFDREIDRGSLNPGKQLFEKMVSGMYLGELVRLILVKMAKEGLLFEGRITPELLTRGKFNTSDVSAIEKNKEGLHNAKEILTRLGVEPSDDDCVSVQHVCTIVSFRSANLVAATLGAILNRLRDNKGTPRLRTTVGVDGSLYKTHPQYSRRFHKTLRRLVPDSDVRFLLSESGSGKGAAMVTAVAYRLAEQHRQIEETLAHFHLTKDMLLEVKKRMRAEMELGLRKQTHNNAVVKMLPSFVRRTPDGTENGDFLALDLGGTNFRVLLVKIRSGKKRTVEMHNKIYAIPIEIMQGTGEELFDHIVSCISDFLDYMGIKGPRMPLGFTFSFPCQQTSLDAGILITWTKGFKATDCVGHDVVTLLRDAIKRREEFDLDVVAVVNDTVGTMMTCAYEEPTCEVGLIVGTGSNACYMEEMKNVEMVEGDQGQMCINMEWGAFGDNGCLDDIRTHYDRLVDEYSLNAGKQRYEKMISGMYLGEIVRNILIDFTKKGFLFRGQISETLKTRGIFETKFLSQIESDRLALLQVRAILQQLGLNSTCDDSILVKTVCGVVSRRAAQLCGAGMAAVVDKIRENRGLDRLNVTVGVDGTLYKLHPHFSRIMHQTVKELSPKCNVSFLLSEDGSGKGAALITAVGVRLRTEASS

Hexokinase HKDC1 = biological target: T2, Hexokinase HKDC1 (Homo sapiens, UniProt Q2TB90); experiment: analog inhibition of human HKDC1 activity – biochemical, set 2, SAR follow-up (AID 588355); type: functional
T2 sequence (Q2TB90 whole entry): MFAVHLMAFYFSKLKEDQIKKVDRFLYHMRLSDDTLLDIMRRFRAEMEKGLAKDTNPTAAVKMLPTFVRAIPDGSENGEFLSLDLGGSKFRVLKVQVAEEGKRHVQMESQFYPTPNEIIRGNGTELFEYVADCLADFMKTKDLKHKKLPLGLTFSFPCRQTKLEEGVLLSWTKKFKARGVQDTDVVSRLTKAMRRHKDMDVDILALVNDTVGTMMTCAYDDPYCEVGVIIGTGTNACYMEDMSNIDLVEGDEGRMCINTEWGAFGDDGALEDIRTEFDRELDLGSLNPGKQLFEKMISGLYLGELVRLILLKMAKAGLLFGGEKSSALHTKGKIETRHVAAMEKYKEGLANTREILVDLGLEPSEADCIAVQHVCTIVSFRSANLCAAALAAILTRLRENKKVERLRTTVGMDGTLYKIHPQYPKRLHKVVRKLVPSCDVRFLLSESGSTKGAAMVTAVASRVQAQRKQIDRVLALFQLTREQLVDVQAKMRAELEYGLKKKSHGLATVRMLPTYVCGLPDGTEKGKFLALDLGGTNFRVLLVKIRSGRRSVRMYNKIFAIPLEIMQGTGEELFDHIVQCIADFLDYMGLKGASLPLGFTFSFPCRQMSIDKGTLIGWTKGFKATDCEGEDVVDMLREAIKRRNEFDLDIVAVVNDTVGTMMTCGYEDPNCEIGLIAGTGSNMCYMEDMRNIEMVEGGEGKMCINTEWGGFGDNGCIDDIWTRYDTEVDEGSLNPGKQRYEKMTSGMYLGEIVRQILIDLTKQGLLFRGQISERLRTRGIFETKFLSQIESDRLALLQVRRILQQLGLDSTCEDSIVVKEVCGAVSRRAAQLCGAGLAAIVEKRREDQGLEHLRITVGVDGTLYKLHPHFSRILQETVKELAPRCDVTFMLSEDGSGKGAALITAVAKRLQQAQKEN

[4] = biological target: Dual specificity protein kinase CLK1 (Homo sapiens, UniProt P49759); experiment: inhibition of human CLK1 activity – biochemical, cherry-picked samples, selectivity assay for Dyrk1A inhibitor project, dose response (AID 588811)
Escherichia coli = experiment: microbe, parasite or virus in culture
[5] = viability loss of HMLE_sh_eGFP cells – cell-based, luminescence, counter-screen for HMLE_sh_ECad selective toxicity project, dose response (AID 463074); type: functional, Homo sapiens;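 also: HMLE human mammary epithelial cells expressing control shRNA against eGFP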
[6] = viability of HCT116 lacking mutant beta-catenin – cell-based, human colon tumor, dose response (AID 1045); type: functional;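 also: HCT116 colon tumor cells with beta catenin knocked out; cells exposed to compound for 60 hours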
[7] = Luminescence Cell-Based Dose Retest to Confirm Inhibitors of Cancer Stem Cells. [Related pubchem assays (depositor defined):AID2717, AID2721]; type: functional; conditions: Homo sapiens
[8] = viability of PTEN-deleted HCT116 cells – cell-based, HCT116 PTEN knockout, dose response (AID 1047); type: functional;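 also: HCT116 colon tumor cells with PTEN knocked out; cells exposed to compound for 60 hours before readout; potency for loss of cell viability measured by luminescence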
[9] = biological target: T3, Short transient receptor potential channel 4 (Mus musculus, UniProt Q9QUQ5); experiment: SAR Analysis for the identification of selective inhibits of the transient receptor potential cation channel C4 (TRPC4): Automated Electrophysiology. [Related pubchem assays (depositor defined):AID2256]; type: functional
T3 sequence (Q9QUQ5 whole entry): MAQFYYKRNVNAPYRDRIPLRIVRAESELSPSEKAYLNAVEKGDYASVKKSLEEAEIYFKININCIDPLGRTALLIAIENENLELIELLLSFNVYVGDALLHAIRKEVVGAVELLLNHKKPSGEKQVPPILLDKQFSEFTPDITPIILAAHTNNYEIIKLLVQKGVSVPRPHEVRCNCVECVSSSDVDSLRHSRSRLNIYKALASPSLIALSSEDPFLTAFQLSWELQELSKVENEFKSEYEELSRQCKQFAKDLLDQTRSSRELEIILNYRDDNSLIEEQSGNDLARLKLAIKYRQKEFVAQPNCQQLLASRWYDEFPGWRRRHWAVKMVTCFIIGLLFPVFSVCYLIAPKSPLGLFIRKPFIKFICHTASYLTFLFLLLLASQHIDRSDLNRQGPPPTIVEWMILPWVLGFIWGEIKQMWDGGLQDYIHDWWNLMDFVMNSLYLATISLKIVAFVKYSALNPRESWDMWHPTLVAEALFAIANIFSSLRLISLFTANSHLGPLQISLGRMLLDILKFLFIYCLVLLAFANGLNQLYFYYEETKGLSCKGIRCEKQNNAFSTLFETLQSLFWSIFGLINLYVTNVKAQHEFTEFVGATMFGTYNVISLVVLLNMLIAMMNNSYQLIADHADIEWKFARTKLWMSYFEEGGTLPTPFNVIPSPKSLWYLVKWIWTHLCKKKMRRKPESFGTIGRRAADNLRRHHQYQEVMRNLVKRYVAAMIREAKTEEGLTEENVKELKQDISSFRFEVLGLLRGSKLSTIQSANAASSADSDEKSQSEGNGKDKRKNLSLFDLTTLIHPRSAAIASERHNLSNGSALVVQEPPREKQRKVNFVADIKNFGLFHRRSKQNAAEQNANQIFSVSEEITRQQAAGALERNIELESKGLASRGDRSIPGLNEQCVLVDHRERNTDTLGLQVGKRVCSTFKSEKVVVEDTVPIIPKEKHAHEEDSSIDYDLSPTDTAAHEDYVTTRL

[10] = biological target: Short transient receptor potential channel 6 (Mus musculus, UniProt Q61143); experiment: mouse TRPC6 channel blockers, concentration series – HEK293 cells, membrane potential dye, IC50, selectivity assay for selective TRPC4 inhibitor project, dose response (AID 492987); type: functional, cell-based
[11] = biological target: T3, Short transient receptor potential channel 4; experiment: potency of mouse TRPC4 calcium flux blockers – cell-based, HEK293 TRPC4/mu-opioid, DAMGO stimulus, Fluo-4, dose response (AID 492994); type: functional
[12] = MIN6 cell viability loss – mouse insulinoma, cytotoxicity control, dose response (AID 2122); type: functional;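 also: confirmatory high-throughput counterscreen run to flag cytotoxic compounds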
[13] = decrease of insulin promoter-GFP reporter – imaging, high-content screening, mouse beta cells (AID 1628); type: functional; conditions: MIN6
[14] = Luminescence Cell-Based Dose Response HTS to Identify Inhibitors of 5'UTR Stem-Loop Driven Prion Protein mRNA Translation in H4 Neuroglioblastoma Cells. [Related pubchem assays: 1827 (Project Summary), 1813 (Primary HTS)]; type: functional
[15] = DRD fibroblast viability loss – cell-based, non-viral oncogenic, luminescence, dose response (AID 1934); type: functional; conditions: Homo sapiens
[16] = biological target: T4, Microphthalmia-associated transcription factor (Homo sapiens, UniProt O75030); experiment: reducers of TRPM1 reporter luminescence, concentration series – cell-based, SK-MEL-5, cherry-picked, set 3, MITF inhibitor project, dose response (AID 493073); type: functional;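 also: SK-MEL-5 melanoma cells with luciferase driven by the MITF target TRPM1 promoter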
T4 sequence (O75030 whole entry): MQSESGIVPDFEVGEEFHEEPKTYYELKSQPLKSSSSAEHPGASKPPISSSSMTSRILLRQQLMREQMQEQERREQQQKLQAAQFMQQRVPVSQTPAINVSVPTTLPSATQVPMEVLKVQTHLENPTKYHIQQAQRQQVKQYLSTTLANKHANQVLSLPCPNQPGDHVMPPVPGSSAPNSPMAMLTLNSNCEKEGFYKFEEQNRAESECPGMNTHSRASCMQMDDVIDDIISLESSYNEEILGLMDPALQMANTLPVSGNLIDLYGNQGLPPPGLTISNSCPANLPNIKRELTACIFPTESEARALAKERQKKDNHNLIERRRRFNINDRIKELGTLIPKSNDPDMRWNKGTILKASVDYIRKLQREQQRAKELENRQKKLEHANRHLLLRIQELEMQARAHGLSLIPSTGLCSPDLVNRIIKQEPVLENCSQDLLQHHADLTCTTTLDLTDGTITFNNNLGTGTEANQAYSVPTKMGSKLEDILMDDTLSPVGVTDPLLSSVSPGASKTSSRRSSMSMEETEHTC

BJ [17] = experiment: BJ-TERT fibroblast viability loss – cell-based, RAS-independent, luminescence, dose response (AID 1933); type: functional; conditions: Homo sapiens
[18] = luciferase reporter signal suppression in cells – H4 neuroglioma cells, luminescence, dose response (AID 1990); type: functional, cell-based
[19] = cAMP pathway inhibition in counterscreen cell line – TR-FRET cAMP detection, counter-screen for MC4R biased antagonist project, dose response (AID 602305); type: functional, cell-based;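 also: U2OS cells stimulated with forskolin near its EC80 as the cAMP inducer; potency is for inhibition of forskolin-stimulated cAMP signaling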
Melanocortin receptor 4 = Melanocortin receptor 4 (Homo sapiens, UniProt P32245); experiment: inhibitors of MC4R cAMP signaling – cell-based, TR-FRET, biased antagonists, dose response (AID 602298); type: functional;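 also: antagonist potency against agonist-stimulated cAMP production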
[20] = alpha-synuclein stem-loop luciferase translation blockers – H4 neuroglioma cells, luminescence, confirmation (AID 1988); type: functional, cell-based
A-375 = experiment: proliferation inhibition in MITF-low A375 cells – cell-based, cherry-pick samples, set 2, counter-screen for MITF modulator project, dose response (AID 540335); type: functional; conditions: Homo sapiens
BJ [21] = experiment: cells; type: functional, cell-based; conditions: Homo sapiens
BJ [22] = experiment: BJ-TERT-LT-ST fibroblast viability loss – cell-based, RAS-independent, luminescence, dose response (AID 1935); type: functional; conditions: Homo sapiens;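 also: BJ fibroblasts immortalized with TERT plus LT and ST oncogenes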

Short transient receptor potential channel 6, sequence (Q61143 whole entry): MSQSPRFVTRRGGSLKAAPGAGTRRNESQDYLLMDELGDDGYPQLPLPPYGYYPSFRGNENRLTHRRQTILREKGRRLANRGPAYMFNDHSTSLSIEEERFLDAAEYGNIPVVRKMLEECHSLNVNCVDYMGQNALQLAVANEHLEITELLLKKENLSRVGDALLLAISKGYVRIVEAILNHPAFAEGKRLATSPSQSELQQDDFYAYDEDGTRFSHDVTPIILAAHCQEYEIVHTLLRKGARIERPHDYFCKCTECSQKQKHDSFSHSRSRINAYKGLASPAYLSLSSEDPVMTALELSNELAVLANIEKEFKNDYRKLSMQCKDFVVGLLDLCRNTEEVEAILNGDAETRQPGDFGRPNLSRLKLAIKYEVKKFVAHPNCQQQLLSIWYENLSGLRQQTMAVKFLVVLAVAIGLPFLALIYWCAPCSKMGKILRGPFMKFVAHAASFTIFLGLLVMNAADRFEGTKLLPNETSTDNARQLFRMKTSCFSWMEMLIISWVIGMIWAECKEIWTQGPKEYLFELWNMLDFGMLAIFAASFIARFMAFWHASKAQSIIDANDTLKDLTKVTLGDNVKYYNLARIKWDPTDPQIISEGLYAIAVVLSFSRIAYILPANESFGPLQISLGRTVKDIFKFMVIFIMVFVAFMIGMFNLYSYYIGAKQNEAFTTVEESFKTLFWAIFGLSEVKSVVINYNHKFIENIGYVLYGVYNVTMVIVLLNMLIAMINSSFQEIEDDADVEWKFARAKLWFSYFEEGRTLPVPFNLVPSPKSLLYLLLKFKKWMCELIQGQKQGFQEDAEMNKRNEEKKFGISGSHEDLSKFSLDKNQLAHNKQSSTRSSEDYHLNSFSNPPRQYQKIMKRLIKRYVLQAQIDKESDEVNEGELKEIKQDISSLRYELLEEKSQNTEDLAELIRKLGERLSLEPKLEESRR
Cytochrome P450 2D6, sequence (P10635 whole entry): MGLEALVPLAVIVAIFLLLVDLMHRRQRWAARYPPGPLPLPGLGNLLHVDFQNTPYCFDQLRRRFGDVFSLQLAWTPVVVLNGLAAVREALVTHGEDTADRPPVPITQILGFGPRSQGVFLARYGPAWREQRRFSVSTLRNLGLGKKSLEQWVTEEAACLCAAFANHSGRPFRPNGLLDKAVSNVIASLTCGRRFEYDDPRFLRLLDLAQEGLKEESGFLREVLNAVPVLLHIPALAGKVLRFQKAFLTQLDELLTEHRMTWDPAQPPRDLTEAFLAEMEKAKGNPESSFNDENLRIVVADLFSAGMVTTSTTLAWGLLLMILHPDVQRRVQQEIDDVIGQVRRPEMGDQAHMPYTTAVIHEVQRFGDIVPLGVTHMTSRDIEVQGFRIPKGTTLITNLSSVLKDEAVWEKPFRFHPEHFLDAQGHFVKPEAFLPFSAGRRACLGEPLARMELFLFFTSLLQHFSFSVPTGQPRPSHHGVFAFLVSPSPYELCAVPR
Cytochrome P450 3A4, sequence (P08684 whole entry): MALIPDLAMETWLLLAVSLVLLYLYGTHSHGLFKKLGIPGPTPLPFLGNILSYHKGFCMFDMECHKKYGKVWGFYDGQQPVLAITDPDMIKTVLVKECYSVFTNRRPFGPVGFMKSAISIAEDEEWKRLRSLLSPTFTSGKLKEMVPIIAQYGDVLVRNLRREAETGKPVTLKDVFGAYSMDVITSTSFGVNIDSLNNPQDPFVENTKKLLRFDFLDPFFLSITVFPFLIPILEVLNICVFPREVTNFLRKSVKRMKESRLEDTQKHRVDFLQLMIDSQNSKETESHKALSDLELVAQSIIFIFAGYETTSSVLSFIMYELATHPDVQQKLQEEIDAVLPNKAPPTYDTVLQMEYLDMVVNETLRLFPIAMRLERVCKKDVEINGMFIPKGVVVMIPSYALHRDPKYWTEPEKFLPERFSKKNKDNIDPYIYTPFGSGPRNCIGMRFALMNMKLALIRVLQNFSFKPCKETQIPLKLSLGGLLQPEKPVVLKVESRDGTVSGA
Dual specificity protein kinase CLK1, sequence (P49759 whole entry): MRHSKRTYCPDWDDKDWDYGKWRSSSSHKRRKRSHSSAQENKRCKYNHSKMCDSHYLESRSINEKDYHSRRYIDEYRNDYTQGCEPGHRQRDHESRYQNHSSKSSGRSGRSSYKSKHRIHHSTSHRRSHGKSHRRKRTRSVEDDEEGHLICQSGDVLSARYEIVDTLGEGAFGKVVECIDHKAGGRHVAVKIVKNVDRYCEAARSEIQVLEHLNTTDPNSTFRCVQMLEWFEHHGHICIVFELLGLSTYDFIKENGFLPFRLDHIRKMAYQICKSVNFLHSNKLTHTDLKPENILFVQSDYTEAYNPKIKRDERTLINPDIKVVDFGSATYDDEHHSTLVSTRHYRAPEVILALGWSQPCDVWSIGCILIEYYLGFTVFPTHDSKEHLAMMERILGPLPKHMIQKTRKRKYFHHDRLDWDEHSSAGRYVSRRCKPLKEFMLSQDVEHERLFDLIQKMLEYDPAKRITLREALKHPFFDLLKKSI
Melanocortin receptor 4, sequence (P32245 whole entry): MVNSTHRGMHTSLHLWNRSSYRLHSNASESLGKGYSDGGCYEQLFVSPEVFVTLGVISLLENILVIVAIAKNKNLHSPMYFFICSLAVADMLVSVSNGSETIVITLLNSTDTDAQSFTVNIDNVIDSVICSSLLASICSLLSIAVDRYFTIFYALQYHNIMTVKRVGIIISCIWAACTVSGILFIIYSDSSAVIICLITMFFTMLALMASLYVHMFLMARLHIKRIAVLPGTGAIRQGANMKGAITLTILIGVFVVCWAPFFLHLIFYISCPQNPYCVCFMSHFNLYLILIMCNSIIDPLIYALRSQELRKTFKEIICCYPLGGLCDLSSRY
Cytochrome P450 2C9, sequence (P11712 whole entry): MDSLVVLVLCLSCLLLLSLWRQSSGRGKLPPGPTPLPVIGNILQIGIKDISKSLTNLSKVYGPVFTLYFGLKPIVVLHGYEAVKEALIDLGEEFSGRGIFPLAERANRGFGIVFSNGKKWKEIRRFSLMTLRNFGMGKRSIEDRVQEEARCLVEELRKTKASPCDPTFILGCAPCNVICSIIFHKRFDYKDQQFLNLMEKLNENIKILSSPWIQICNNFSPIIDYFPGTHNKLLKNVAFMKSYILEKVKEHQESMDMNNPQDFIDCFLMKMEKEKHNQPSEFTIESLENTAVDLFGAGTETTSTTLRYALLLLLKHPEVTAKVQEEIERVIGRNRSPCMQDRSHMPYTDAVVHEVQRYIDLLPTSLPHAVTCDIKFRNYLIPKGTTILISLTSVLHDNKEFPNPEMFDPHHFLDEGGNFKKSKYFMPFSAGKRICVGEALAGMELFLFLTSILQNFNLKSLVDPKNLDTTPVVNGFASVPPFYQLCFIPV

c1ccc(CSc2ncnc3c2sc2nc(N4CCOCC4)c4c(c23)CCCC4)cc1
AC50 (Cytochrome P450 2D6): inconclusive | EC50 [1]: > 79.4 µM (not active) | EC50 [2]: > 79.4 µM (not active) | EC50 [3]: 18.6 µM (not active) | AC50 (Cytochrome P450 2C9): 1.12 µM (inconclusive) | AC50 (Cytochrome P450 3A4): inconclusive

CCc1ccc(NC2c3ccccc3C(=O)N2c2ccccc2C)cc1 (stereo unspecified)
IC50 (Hexokinase-1): > 80 µM (inactive) | IC50 (Hexokinase HKDC1): > 80 µM (inactive)

Cc1nc(CN(C)c2ncnc3ccc(-c4ccc5c(c4)OCO5)cc23)cs1
AC50 [4]: < 0.00195 µM (active)

COc1cc(SC)ccc1C(=O)Nc1cc(C)ccn1
AC50 (Escherichia coli): 31.5 µM (active)

Cc1nn(Cc2ccc(Cl)cc2)c(Cl)c1/C=N/NC(=O)CNc1ccccc1F
AC50 [5]: 24.9 µM (active) | EC50 [6]: 18 µM (active) | AC50 [7]: 16.2 µM (active) | EC50 [8]: 15.8 µM (active)

Cc1ccc2nc(N3CCCC3)cc(C)c2c1
IC50 [9]: 3.71 µM (active) | IC50 [10]: 2.03 µM (active) | IC50 [11]: 2.04 µM (active)

N=c1ccn(Cc2ccc(Cl)c(Cl)c2)cc1
IC50 [12]: 4.07 µM (active) | IC50 [13]: 3.32 µM (active)

O=C(/C=C/c1ccc(Cl)cc1)c1ccc([N+](=O)[O-])o1
EC50 [14]: > 60 µM (not active) | EC50 [15]: 1.13 µM (inconclusive) | AC50 [16]: 5.32 µM (active) | EC50 (BJ [17]): > 150 µM (not active) | EC50 [18]: 8.88 µM (active) | IC50 [19]: > 64.6 µM (inactive) | IC50 (Melanocortin receptor 4): > 64.6 µM (inactive) | EC50 [20]: > 120 µM (not active) | AC50 (A-375): 29.9 µM (active) | AC50 [7]: 1.21 µM (active) | EC50 (BJ [21]): > 150 µM (inconclusive) | EC50 (BJ [22]): > 150 µM (inconclusive)
